Key:
[1] = target: T1, PRMT5/MEP50 complex (Homo sapiens, UniProt O14744); test: PRMT5:MEP50 FlashPlate Assay (histone H4 peptide substrate, plus and minus MTA); format: biochemical
T1 construct: purchased Reaction Biology Corporation
Procedure: The PRMT5 inhibitory activity of compounds of the present invention was determined using either a PRMT5:MEP50 FlashPlate Assay (Reaction Biology Corporation) or a PRMT5:MEP50 HotSpot Assay (Reaction Biology Corporation).

[2] = tested on: PRMT5-dependent Symmetric Di-methyl Arginine signal in HCT116 homozygous MTAP Knockout cells; test: SYM11 In-Cell Western in HCT116 homozygous MTAP knockout cells; format: cell-based; conditions: 4 days of treatment, SYM11/DRAQ5 ratio as percent of DMSO control, read-out: In-cell-Western (SYM11) IC50 (nM) HCT116 MTAP_KO
In short: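 HCT116 cells with CRISPR homozygous MTAP knockout, alongside parental cells, treated four days with PRMT5 inhibitor dose response at 37° C., 5% CO2 in McCoy's 5A with 10% FBS.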

[3] = target: T1, PRMT5/MEP50 complex; test: PRMT5:MEP50 HotSpot Assay (full-length histone H2A substrate, plus and minus MTA); format: biochemical; conditions: read-out: IC50 + 2 μM MTA, in the presence of 2 μM MTA
In short: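 Tritiated product on full-length recombinant H2A was counted by scintillation after the stopped reaction was captured on filter paper. Substrate is histone H2A; conditions include plus and minus MTA.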

[4] = tested on: HCT116 parental cells; test: Proliferation assay (CellTiter-Glo, 10 days) in HCT116 parental cells; format: cell-based; conditions: CellTiter-Glo after 10 days of treatment
Procedure: (§1) Control samples were analyzed in parallel.
Briefly, on Day 0, 250 HCT116 parental or HCT116 homozygous MTAP knockout cell were seeded in 96 well plates in McCoy's 5A supplemented with […] fetal bovine serum and pen/strep and the cells were incubated overnight at 37° C. plus 5% CO2.
The following day, cells were treated with DMSO vehicle control or a dose response of PRMT5 inhibitors and incubated at 37 C plus 5% CO2 for five days. On Day 6, the cells were trypsinized and split 1:10 into new 96-well plates with fresh medium containing the same concentration of PRMT5 inhibitor and incubated for an additional 5 days at 37° C. plus 5% CO^2.
On Day 11, the viability of the cells was measured using a CTG assay kit (CellTiter-Glo; Promega cat.no G7573) in accordance with the manufacturer's instructions. The IC50 values for each compound after 10 days of treatment were calculated using GraphPad PRISM software.

[5] = tested on: HCT116 homozygous MTAP knockout cells; test: Proliferation assay (CellTiter-Glo, 10 days) in HCT116 homozygous MTAP knockout cells; format: cell-based; conditions: CellTiter-Glo after 10 days of treatment, read-out: Proliferation IC50 (nM) HCT116 MTAP_KO
In short: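 CellTiter-Glo viability read on day 11 gives a 10-day IC50. Dosing began one day after seeding, with a 1:10 split into fresh drug-containing medium on day 6. Cells are HCT116 lacking both MTAP alleles via CRISPR/Cas9, run alongside the parental line.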

[6] = tested on: PRMT5-dependent Symmetric Di-methyl Arginine signal in HCT116 parental cells; test: SYM11 In-Cell Western in HCT116 parental cells; format: cell-based; conditions: HCT116 parental cells; 4 days of treatment; SYM11/DRAQ5 ratio as percent of DMSO control; read-out: In-cell-Western (SYM11) IC50 (nM) HCT216 parental
Procedure: as §1
Briefly, on Day 0, 2,000 HCT116 parental or HCT116 homozygous MTAP knockout cells were seeded in 96 well plates in McCoy's 5A supplemented with 10% fetal bovine serum and pen/strep and the cells were incubated overnight at 37° C. plus 5% CO2. The following day, cells were treated with DMSO vehicle control or a dose response of PRMT5 inhibitors, and incubated at 37° C. plus 5% CO^2 for four days.
After 4 days of treatment, the cells were fixed by adding 50 μl of 4% paraformaldehyde solution to each well and the cells were incubated for 20 min at room temperature. The paraformaldehyde solution was removed, 150 μl of ice-cold methanol was added and the plate was placed −20° C. for 10 minutes. The methanol was removed, 150 μl of Odyssey Blocking buffer+0.05% Tween20 was added and the plate was incubated at room temperature with shaking for one hour.
The primary SYM11 antibody solution was removed by aspiration and the wells were washed three consecutive times with phosphate buffered saline containing 0.1% Tween-20 (PBST).
The secondary antibody solution was removed by aspiration and the wells were washed three consecutive times with PBST.
The SYM11 signal and the DRAQ5 signal were quantified using a Li-Cor Odyssey machine reading at […], respectively. The SYM11/DRAQ5 ratio was used to calculate the inhibition of Symmetric Dimethyl Arginine as percent of DMSO control.

T1 sequence (O14744 2-637 limits assumed): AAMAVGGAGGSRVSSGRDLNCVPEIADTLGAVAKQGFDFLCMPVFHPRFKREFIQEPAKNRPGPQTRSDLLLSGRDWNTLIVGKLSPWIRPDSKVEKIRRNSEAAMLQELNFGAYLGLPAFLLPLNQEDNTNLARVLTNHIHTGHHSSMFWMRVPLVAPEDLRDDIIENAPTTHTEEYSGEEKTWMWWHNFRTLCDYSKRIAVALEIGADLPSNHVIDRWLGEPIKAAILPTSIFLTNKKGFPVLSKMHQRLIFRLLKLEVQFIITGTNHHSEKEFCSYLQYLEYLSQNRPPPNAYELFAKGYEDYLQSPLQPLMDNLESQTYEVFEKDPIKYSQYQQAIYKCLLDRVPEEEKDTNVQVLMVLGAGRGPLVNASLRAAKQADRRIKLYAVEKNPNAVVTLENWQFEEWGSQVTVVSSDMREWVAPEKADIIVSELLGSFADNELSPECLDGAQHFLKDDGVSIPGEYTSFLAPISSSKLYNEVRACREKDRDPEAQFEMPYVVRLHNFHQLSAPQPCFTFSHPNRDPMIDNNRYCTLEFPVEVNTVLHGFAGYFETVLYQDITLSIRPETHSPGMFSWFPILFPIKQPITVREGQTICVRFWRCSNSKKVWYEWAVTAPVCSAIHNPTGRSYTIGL
T1 sequence (Q9BQA1 2-342 partner limits assumed): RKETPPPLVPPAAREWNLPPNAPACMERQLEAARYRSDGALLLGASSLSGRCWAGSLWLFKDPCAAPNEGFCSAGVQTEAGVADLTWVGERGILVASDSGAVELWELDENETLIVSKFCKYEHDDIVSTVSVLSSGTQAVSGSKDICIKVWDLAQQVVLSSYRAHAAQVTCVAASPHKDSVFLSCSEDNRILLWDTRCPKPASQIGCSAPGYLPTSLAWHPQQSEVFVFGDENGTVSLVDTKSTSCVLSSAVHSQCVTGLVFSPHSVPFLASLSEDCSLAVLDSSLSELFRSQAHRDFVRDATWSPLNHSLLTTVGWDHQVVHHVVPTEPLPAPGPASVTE

IC50 ([1]; in the absence of MTA, read-out: IC50): 113 nM | IC50 ([1]; read-out: IC50 + 2 μM MTA, in the presence of 2 μM MTA): 2.8 nM | IC50 [2]: > 10000 nM | IC50 [3]: 1460 nM | IC50 [5]: 2200 nM
Substance: 4-(aminomethyl)-6-(5-ethoxypyrazolo[1,5-a]pyridin-3-yl)phthalazin-1(2H)-one [Example 4-158]
IC50 [4]: 1740 nM | IC50 [6]: > 10000 nM

Reference: patent US20240208912A1 (Mirati Therapeutics, Inc., priority 2021, published 2024)
